Patent publication US7955808B2, “Bitter taste receptors” (Deutsches Institut für Ernährungsorschung, Stiftung des …, priority 2002, dated 2011)
One block for each compound: values may come before it.

Legend:
hTAS2R38 = biological target: T1, hTAS2R38 (Homo sapiens, UniProt P59533); experiment: FLIPR assay, heterologous expression of hTAS2R38; type: cell-based
T1 construct: gene-specific primers that span the complete coding region ... contains the first 45 amino acids of the rat somatostatin type 3 receptor
T1 sequence (P59533 1-333 A49P/I296V): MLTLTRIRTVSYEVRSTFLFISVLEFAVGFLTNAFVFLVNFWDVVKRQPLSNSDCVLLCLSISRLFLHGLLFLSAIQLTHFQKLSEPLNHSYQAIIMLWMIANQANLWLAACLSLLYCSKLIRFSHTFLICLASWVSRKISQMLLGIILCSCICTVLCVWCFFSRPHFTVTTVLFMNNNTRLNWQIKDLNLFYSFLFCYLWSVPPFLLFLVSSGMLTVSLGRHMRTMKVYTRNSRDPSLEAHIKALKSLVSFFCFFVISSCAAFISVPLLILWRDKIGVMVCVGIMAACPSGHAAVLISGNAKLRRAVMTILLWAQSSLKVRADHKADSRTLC
Excerpt: These cells stably express a chimeric G protein constructed from human Gα16 and rat gustducin. Finally, we seeded the transfected cells at a density of 3×10^3 cells per well into 96-well black-wall, clear-bottom microtiter plates (Greiner).
Co-transfection of TAS2Rs with gustducin and phospholipase-Cβ2 into HEK-293 cells. Alternatively, we transfected simultaneously plasmid DNAs encoding one of the TAS2Rs, phospholipase-Cβ2 and α-gustducin into HEK-293 cells using the lipofectamine method. Additional cotransfection of G-protein β and γ-subunits may improve the bitter tastant-induced responses. Thereafter, the transfected cells were seeded at a density of 3×10^3 cells per well into 96-well black-wall, clear-bottom microtiter plates (Greiner).
Thereafter, cells were gently washed in HBS by an automated plate washer (Denley Cellwash, Labsystenms) and transferred to the FLIPR (Molecular Devices). The FLIPR integrates an argon laser excitation source, a 96-well pipettor, and a detection system utilizing a Charged Coupled Device imaging camera. […] Fluorescence data were collected 1 min before and 10 min after stimulation. Data were collected every 6 s before and every 1 s after agonist stimulation. 50 μl of 3× concentrated agonists were delivered within 2 by the integrated 96-well pipettor to the wells containing 100 μl HBS. Agonist responses were quantified using the amplitudes of the fluorescence peaks. We averaged the responses of five wells containing cells expressing the same receptor and that received the same stimulus. Calcium traces were determined in triplicate of mock-transfected cells stimulated with the same concentration of tastant.

hT2R4 receptor = biological target: T2, hT2R4 receptor (Homo sapiens, UniProt Q9NYW5); conditions: concentrations needed two orders of magnitude above human taste thresholds; cited from earlier work
T2 sequence (Q9NYW5 1-299): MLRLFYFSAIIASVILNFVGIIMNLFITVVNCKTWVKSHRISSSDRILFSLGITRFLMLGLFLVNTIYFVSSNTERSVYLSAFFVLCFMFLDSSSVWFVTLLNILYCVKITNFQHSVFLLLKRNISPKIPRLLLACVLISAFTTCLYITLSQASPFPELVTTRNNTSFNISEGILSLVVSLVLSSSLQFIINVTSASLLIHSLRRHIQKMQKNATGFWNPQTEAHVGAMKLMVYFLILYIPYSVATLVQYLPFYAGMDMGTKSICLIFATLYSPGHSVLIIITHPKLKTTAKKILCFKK

hTAS2R16 [1] = biological target: T3, hTAS2R16 (Homo sapiens, UniProt Q9NYV7, R222H); experiment: Single-cell Ca2+ imaging, hTAS2R16-transfected HEK293/15 cells (selectivity, cross-desensitization); type: cell-based
T3 construct: gene-specific primers that span the complete coding region of the individual hTAS2R genes; first 45 amino acids of rat somatostatin type 3 receptor (cell surface-targeting signal) (N); expressed in transfected cells; host or cells: HEK293/15 cells (HEK293 stably expressing Galpha15), transient transfection
T3 sequence (Q9NYV7 1-291 R222H): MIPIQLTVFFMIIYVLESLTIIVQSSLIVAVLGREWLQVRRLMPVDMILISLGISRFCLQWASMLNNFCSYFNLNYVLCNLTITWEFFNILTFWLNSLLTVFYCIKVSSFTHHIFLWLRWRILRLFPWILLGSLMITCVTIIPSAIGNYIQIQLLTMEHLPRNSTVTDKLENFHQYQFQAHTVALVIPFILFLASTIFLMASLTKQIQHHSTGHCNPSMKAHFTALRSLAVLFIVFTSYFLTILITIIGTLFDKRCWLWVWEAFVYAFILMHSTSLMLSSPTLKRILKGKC
Procedure: A fluorescence imaging plate reader (FLIPR, Molecular Devices) was used to functionally screen cell populations transiently transfected with expression vectors encoding the above-described 24 bitter receptors and to establish concentration-response curves for hTAS2R16 and hTASR10. […] For the FLIPR experiments the HEK293/15 cells were grown to 50% confluence. […] After 48 h the cells in each well were transfected using Lipofectamine 2000 and 24-30 h later were loaded with FIuo4AM (Molecular Probes). Thereafter they were stimulated with bitter compounds (SigmaAldrich, further purified by reversed-phase HPLC to >99% purity). Calcium signals were recorded simultaneously from each well at 1 Hz at 510 nm after excitation at 488 nm and the recordings were corrected for cell density. […]
Single-cell Ca^2+ imaging was performed with the hTAS2R16-transfected HEK293/15 cells as described in Cell 95, 917-926 (1998), but with the following modifications: The Till Photonics imaging system (Munich, Germany) was used in which a monochromator is connected by a quartz fiber lightguide and an epifluorescence condenser to an inverted Olympus IX50 microscope equipped with a UApo/340 40×1.35 oil-immersion lens. […] The 5 s interval camera pictures of all cells in the microscope field of vision permanently were stored and analyzed offline. […]

hTAS2R16 [2] = biological target: T3, hTAS2R16; experiment: FLIPR assay, heterologous expression of hTAS2R16; type: cell-based; conditions: hTAS2R16
Excerpt: (§1) Transient transfection of TAS2Rs into HEK-293T-Gα16gustducin44 cells.

hTAS2R16 [3] = biological target: T3, hTAS2R16; experiment: FLIPR calcium assay, hTAS2R16-expressing HEK293/15 transfectants; type: cell-based
Procedure: A fluorescence imaging plate reader (FLIPR, Molecular Devices) was used to functionally screen cell populations transiently transfected with expression vectors encoding the above-described 24 bitter receptors and to establish concentration-response curves for hTAS2R16 and hTASR10. […] For the FLIPR experiments the HEK293/15 cells were grown to 50% confluence. […] After 48 h the cells in each well were transfected using Lipofectamine 2000 and 24-30 h later were loaded with FIuo4AM (Molecular Probes). Thereafter they were stimulated with bitter compounds (SigmaAldrich, further purified by reversed-phase HPLC to >99% purity). Calcium signals were recorded simultaneously from each well at 1 Hz at 510 nm after excitation at 488 nm and the recordings were corrected for cell density. […] The calculations rest on at least four independent transfection experiments.
EC50 and threshold values obtained with hTAS2R16-expressing transfectants are shown in Table 1 below and the results are described in Example 4.

human panelists [4] = experiment: Human taste experiments: bitter thresholds and dose-response by sensory panel; type: in vivo
Procedure: 15 experienced panelists in a sensory panel room at 22-25° C. determined bitter thresholds on three different sessions using a triangle test with tap water as solvent, according to methodology set out in J. Agric. Food Chem., 49, 231-238 (2001), or Mailgaard M et al, “Sensory Evaluation Techniques” (CRC Press LLC, New York 1999). For dose-response relations, bitter tastant concentration series were presented to 10 trained panelists in random order. The panelists ranked the samples in increasing order of intensity and, for each concentration, evaluated bitterness intensity on a scale from 0 to 5 (ref. 24). The dose-response curves of three different sessions were averaged. The intensity values between individuals and separate sessions differed by not more than 0.5 units.

human panelists [5] = experiment: Human taste adaptation experiment; type: in vivo; conditions: for bitterness after prolonged stimulation with phenyl-beta-D-glucopyranoside (cross-adaptation): in vivo
Procedure: To investigate adaptation, the 8 panelists first maintained aqueous solutions (5 ml) of phenyl-β-D-glucopyranoside (8 mM), phenyl-alpha-D-glucopyranoside (180 mM), salicin (8 mM), or helicin (8 mM) for 15 s in their oral cavities and evaluated the bitter intensity as described above. After 30 min, they kept a denatonium benzoate solution (5 ml, 0.0003 mM) for 15 s in their mouth and evaluated its bitterness. The panelists spat off the denatonium benzoate solution, took up the phenyl-β-D-glucopyranoside or the phenyl-alpha-D-glucopyranoside solutions orally for 120 s or 180 s and judged their bitterness intensity after 15, 30, 60, 120 and 180s. Thereafter, the panelists spat off these solutions and then sequentially took up salicin, helicin (5 ml, 8 mM) and denatonium benzoate (5 ml, 0.0003 mM) and evaluated bitterness intensities of these solutions after 15 s. After an additional 30 min, the first experiment was repeated. The data of three different sessions for each panelist were averaged. Intensity values between individuals and separate sessions differed by not more than ±0.5 units.

hTAS2R10 [6] = biological target: T4, hTAS2R10 (Homo sapiens, UniProt Q9NYW0, T156M); experiment: FLIPR assay, heterologous expression of hTAS2R10; type: cell-based
T4 construct: gene-specific primers that span the complete coding region of the individual hTAS2R genes; first 45 amino acids of rat somatostatin type 3 receptor (cell surface-targeting signal) (N); expressed in transfected cells; host or cells: HEK-293T-Gα16gustducin44 cells (alternatively HEK-293 co-transfected with phospholipase-Cβ2 and α-gustducin)
T4 sequence (Q9NYW0 1-307 T156M): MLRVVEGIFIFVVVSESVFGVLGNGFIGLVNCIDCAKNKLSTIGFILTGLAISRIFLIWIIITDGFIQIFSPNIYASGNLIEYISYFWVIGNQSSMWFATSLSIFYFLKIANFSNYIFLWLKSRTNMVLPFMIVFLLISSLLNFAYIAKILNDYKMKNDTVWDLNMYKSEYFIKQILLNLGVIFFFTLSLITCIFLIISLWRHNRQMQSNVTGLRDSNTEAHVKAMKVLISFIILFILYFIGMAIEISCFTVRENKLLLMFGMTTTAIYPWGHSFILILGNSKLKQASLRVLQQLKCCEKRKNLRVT
Excerpt: as §1

hTAS2R14 = biological target: T5, hTAS2R14 (Homo sapiens, UniProt Q9NYV8); experiment: FLIPR assay, heterologous expression of hTAS2R14; type: cell-based
T5 construct: gene-specific primers that span the complete coding region of the individual hTAS2R genes; first 45 amino acids of rat somatostatin type 3 receptor (cell surface-targeting signal) (N); expressed in transfected cells; host or cells: HEK-293T-Gα16gustducin44 cells (alternatively HEK-293 co-transfected with phospholipase-Cβ2 and α-gustducin)
T5 sequence (Q9NYV8 1-317): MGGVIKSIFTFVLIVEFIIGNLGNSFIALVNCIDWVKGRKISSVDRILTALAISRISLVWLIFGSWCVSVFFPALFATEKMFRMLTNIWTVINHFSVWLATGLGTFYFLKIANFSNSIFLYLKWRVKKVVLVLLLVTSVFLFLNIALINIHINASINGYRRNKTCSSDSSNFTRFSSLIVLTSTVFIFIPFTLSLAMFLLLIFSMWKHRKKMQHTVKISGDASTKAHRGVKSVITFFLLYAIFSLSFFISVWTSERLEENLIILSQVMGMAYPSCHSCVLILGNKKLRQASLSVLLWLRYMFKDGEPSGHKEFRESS
Excerpt: as §1

hTAS2R10 [7] = biological target: T4, hTAS2R10; experiment: FLIPR calcium assay, hTAS2R10-expressing HEK293/15 transfectants; type: cell-based
Procedure: A fluorescence imaging plate reader (FLIPR, Molecular Devices) was used to functionally screen cell populations transiently transfected with expression vectors encoding the above-described 24 bitter receptors and to establish concentration-response curves for hTAS2R16 and hTASR10. […] For the FLIPR experiments the HEK293/15 cells were grown to 50% confluence. The cells were then seeded at a density of 3×10^3 cells per well into 96-well black-wall, clear-bottom microtiter plates (Greiner). After 48 h the cells in each well were transfected using Lipofectamine 2000 and 24-30 h later were loaded with FIuo4AM (Molecular Probes). […] The responses of five wells containing cells expressing the same receptor and that received the same stimulus (i.e., the same compound at the same concentration) were averaged. Calcium traces were subtracted that were determined in triplicate of mock-transfected cells stimulated with the same concentration of tastant. The calculations rest on at least four independent transfection experiments.

SMILES: CCCc1cc(=O)[nH]c(=S)[nH]1 [6-Propyl-2-thiouracil]
Approx. Threshold (hTAS2R38): 0.3 µM
receptor activation (in words) (hTAS2R38): activated
EC50 (hTAS2R38; read-out: EC50): 2 µM
in vitro response of the receptor (hT2R4 receptor): provided a response

SMILES: OCc1ccccc1O[C@@H]1O[C@H](CO)[C@@H](O)[C@H](O)[C@H]1O [Compound 2, salicin]
response after repeated stimulation with phenyl-beta-D-glucopyranoside (cross-desensitization) (hTAS2R16 [1]; hTAS2R16-expressing cells): largely diminished responses
Threshold (hTAS2R16 [2]): 0.07 ± 0.02 mM
EC50 (hTAS2R16 [2]; read-out: EC50): 1400 ± 200 µM
EC50 (hTAS2R16 [3]): 1400 µM
Threshold Value FLIPR (hTAS2R16 [3]): 0.07 ± 0.02 mM
Threshold Value Human (human panelists [4]; bitter threshold, triangle test, tap water): 0.2 ± 0.1 mM
EC50 (human panelists [4]; bitterness intensity dose-response): 1100 µM
initial bitterness score by test panel (human panelists [5]; 8 mM, 15 s): equally intensely bitter
bitterness after prolonged stimulation with phenyl-beta-D-glucopyranoside (cross-adaptation) (human panelists [5]): less bitter

SMILES: N[C@@H](Cc1ccc(O)cc1)C(=O)O [L-Tyrosine]
reacts at (hTAS2R14): 1 mM
receptor activation (in words) (hTAS2R14): activated

SMILES: O=C1C[C@@H]2OCC=C3CN4CC[C@]56c7ccccc7N1[C@H]5[C@H]2[C@H]3C[C@H]46 [Strychnine]
EC50 (hTAS2R10 [6]): 40 µM
Approx. Threshold (hTAS2R10 [6]; hTAS2R10): 0.003 mM
receptor activation (in words) (hTAS2R10 [6]; hTAS2R10): activated
EC50 (hTAS2R10 [7]): 5 to 20 µM
threshold of activation (hTAS2R10 [7]; hTAS2R10 transfectants): approximately 0.1 μM

SMILES: CC[N+](CC)(CC(=O)Nc1c(C)cccc1C)Cc1ccccc1 [denatonium]
in vitro response of the receptor (hT2R4 receptor): provided a response

SMILES: N[C@@H](Cc1c[nH]cn1)C(=O)O [histidine]
receptor activation (in words) (hTAS2R14): activated

SMILES: CC(C)C[C@H](N)C(=O)O [leucine]
receptor activation (in words) (hTAS2R14): activated

The next lines start with results.

Approx. Threshold (hTAS2R10 [6]; hTAS2R10): 0.003 mM
receptor activation (in words) (hTAS2R10 [6]; hTAS2R10): activated
EC50 (hTAS2R10 [6]; hTAS2R10, read-out: EC50): 70 µM
SMILES: CC[N+](CC)(CC(=O)Nc1c(C)cccc1C)Cc1ccccc1.O=C([O-])c1ccccc1 [Denatonium benzoate]
activation of TAS2R16 (hTAS2R16 [1]): cannot activate
bitterness after prolonged stimulation with phenyl-beta-D-glucopyranoside (cross-adaptation) (human panelists [5]): not

receptor activation (in words) (hTAS2R14): activated
SMILES: N[C@@H](Cc1ccccc1)C(=O)O [phenylalanine]

receptor activation (in words) (hTAS2R14): activated
SMILES: N[C@@H](Cc1c[nH]c2ccccc12)C(=O)O [tryptophan]
